Experimental data as given in ChEMBL document CHEMBL5465560, “Selectivity Literature for EUbOPEN Chemogenomic Library” (2024).

What was measured:
[1] = biological target: Mitogen-activated protein kinase kinase kinase 1 (Homo sapiens, UniProt Q13233); test: Selectivity interaction (KinomeScan (DiscoverX)) EUB0000229b MAP3K1; settings: at 10 µM
[2] = biological target: T1, Mitogen-activated protein kinase 15 (Homo sapiens) (UniProt Q8TD08); test: Selectivity interaction (ProQinase) EUB0000171b MAPK15
T1 sequence (whole entry): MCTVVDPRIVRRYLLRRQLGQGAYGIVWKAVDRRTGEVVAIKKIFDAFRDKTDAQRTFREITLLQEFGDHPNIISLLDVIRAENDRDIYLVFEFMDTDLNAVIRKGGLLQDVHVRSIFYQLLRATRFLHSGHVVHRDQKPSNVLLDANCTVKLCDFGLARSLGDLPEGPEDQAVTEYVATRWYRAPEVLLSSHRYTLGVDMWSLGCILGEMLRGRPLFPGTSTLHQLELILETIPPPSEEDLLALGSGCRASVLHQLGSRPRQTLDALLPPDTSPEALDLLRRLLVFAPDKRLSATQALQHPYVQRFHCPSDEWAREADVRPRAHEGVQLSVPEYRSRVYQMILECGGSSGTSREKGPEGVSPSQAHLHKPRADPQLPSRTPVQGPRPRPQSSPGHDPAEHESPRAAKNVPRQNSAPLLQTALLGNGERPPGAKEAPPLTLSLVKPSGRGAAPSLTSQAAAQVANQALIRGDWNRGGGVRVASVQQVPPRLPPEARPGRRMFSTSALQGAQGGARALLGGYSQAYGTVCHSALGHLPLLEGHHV

[3] = biological target: T2, Ephrin type-A receptor 8 (Homo sapiens) (UniProt P29322); test: Selectivity interaction (KinomeScan (DiscoverX)) EUB0001619a EPHA8; settings: at 1 µM
T2 sequence (whole entry): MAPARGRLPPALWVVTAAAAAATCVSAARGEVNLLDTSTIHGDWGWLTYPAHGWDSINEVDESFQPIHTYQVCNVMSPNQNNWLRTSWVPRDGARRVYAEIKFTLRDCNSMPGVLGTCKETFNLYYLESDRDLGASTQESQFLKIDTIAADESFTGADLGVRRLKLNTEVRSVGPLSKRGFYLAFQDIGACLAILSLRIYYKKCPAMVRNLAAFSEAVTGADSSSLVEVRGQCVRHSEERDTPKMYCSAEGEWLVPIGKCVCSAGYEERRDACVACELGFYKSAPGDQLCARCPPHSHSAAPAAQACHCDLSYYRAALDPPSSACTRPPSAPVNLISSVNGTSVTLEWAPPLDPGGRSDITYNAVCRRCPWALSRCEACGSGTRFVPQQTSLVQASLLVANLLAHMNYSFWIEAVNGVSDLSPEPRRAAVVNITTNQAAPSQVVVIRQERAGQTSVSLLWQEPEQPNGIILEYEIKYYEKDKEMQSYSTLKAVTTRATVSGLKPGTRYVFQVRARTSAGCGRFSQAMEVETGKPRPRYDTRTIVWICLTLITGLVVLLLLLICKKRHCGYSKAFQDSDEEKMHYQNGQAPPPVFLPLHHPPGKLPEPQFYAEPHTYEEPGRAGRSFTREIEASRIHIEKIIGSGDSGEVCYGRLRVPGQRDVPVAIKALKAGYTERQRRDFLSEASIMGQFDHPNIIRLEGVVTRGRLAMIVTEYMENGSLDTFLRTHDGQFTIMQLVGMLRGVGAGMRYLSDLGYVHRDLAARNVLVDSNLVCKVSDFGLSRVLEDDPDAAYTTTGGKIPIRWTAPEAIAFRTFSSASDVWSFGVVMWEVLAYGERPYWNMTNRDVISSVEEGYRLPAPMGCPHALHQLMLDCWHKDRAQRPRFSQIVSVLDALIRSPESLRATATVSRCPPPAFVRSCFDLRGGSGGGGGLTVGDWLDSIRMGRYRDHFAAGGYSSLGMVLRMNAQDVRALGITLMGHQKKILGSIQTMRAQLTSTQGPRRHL

[4] = biological target: T3, cAMP-dependent protein kinase catalytic subunit PRKX (Homo sapiens) (UniProt P51817); test: Selectivity interaction (KinomeScan (DiscoverX)) EUB0000655a PRKX; settings: at 10 µM
T3 sequence (whole entry): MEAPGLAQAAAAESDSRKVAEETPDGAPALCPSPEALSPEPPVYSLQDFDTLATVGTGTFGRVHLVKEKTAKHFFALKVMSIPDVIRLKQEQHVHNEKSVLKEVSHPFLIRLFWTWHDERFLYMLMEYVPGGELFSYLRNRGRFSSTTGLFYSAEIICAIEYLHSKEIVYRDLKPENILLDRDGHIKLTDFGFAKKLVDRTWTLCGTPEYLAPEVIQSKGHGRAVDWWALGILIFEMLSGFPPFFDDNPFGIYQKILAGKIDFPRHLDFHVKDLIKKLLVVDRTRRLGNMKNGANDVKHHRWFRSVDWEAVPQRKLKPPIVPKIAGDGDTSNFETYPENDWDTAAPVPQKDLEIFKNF

[5] = biological target: T4, Mitogen-activated protein kinase kinase kinase kinase 2 (Homo sapiens) (UniProt Q12851); test: Selectivity interaction (Ambit KINOMEscan and KiNATiv profiling in Jurkat cells) EUB0000090b MAP4K2; assay type: cell-based; settings: at 1 µM
T4 sequence (whole entry): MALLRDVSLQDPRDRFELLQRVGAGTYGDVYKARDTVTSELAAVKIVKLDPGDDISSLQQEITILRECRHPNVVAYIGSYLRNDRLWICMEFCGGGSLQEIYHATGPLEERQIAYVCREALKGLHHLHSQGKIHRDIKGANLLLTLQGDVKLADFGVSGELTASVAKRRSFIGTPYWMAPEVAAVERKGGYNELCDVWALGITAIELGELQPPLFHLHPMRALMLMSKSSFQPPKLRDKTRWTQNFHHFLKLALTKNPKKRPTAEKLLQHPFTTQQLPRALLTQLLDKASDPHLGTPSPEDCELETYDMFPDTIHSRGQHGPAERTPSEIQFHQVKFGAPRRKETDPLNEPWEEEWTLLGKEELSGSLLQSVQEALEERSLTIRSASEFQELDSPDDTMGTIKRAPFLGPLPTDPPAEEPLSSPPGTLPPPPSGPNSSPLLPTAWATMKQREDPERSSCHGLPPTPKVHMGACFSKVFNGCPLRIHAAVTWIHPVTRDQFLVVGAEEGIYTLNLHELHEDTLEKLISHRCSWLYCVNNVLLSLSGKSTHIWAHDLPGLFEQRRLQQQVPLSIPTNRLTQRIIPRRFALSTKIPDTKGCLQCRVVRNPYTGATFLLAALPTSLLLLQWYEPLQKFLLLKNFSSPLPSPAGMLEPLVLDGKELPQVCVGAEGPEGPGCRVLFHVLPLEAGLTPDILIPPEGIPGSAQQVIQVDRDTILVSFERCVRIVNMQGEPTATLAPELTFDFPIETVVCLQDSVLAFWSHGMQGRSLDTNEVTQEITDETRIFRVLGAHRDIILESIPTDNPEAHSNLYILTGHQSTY

Sequence of Mitogen-activated protein kinase kinase kinase 1 (Q13233 whole entry): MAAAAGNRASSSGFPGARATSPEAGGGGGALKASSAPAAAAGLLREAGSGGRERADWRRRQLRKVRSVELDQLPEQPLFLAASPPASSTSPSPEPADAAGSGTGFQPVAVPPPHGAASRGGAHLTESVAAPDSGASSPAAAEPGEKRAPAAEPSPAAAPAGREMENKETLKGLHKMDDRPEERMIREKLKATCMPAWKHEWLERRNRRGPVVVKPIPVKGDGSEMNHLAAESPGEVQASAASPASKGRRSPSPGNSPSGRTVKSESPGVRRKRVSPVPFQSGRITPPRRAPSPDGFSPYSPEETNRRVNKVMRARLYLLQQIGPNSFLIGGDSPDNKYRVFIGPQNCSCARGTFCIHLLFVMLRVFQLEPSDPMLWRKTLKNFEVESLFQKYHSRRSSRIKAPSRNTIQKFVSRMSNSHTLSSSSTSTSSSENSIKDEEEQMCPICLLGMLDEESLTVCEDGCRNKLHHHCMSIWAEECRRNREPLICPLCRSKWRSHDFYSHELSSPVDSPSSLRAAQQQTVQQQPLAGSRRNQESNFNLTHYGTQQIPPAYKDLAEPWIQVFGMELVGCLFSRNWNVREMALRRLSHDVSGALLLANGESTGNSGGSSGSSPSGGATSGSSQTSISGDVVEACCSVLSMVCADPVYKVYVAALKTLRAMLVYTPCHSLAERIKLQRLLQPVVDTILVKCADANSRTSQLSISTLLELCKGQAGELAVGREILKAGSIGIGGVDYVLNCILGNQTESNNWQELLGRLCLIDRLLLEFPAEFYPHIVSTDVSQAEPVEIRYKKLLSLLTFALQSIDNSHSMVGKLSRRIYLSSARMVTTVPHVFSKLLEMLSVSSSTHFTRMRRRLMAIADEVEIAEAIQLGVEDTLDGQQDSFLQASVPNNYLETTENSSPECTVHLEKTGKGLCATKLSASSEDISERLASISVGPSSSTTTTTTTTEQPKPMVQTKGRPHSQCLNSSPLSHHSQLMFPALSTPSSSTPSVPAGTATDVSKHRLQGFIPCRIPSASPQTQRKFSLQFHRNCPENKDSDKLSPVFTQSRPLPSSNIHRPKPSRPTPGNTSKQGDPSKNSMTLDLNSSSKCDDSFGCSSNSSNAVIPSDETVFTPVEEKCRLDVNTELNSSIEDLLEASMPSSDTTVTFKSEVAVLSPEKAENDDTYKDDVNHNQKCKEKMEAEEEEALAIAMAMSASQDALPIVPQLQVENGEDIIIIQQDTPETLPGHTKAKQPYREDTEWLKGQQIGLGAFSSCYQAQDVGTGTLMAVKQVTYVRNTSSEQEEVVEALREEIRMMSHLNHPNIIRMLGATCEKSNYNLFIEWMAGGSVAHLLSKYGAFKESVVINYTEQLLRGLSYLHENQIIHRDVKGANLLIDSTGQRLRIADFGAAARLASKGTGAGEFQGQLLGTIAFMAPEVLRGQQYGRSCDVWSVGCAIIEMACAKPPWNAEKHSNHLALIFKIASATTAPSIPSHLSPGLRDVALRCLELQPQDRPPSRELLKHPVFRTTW

Question: Which % binding [1] does the source give for `COc1cc(N(C)c2ccnc3ccc(C(F)(F)F)cc23)cc(OC)c1OC` here?
Answer: 74%

Question: `C=CC(=O)Nc1cccc(C(=O)Nc2ccc(Nc3cc(-c4[nH]c(SC)nc4C)ccn3)cc2)c1` was tested. Which % of control ([2]; at 1 µM) did it give?
Answer: 66%

Question: And the % of control ([2]; at 5 µM)?
Answer: 31%

Question: How did the % of control [3] turn out when `N#Cc1cccc(-c2c[nH]c3ncnc(N4CCOCC4)c23)c1` was run?
Answer: 100%

Question: Which % of control [4] does the source give for `CN(C)CCOc1ccc(-c2nc(-c3ccncc3)c(-c3ccc4c(c3)CC/C4=N\O)[nH]2)cc1` here?
Answer: 94%

Question: How did the % of control [5] turn out when `CN(C)C/C=C/C(=O)Nc1ccc(C(=O)N2CCCC(Nc3ncc(Cl)c(-c4c[nH]c5ccccc45)n3)C2)cc1` (stereo unspecified) was run?
Answer: 100%
